For experiment [1], the target named is T1, acyl-CoA: cholesterol acyltransferase (ACAT) (Oryctolagus cuniculus, UniProt G1SFD9).
T1 construct: tissue preparation containing rabbit intestinal microsomes; from tissue; host or cells: rabbit intestinal microsomes
T1 sequence (G1SFD9 1-524): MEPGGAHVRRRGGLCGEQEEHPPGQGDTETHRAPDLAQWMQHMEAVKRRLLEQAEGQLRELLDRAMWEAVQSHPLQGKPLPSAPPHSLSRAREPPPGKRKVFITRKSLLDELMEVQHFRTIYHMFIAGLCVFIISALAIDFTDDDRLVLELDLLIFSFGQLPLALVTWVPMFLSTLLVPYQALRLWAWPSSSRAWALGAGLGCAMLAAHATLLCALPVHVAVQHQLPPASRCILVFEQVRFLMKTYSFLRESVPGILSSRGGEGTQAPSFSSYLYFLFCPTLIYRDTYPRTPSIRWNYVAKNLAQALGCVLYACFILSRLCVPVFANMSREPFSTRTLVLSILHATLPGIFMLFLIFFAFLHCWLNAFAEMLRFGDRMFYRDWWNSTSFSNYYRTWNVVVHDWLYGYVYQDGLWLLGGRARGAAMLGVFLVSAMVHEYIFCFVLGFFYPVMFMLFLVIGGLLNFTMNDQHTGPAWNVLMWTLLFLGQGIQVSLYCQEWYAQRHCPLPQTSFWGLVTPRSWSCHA
Description: In vitro inhibition of ACAT (acylation of cholesterol by oleic acid) in rabbit intestinal microsomes. Format: biochemical. To be noted: radiolabeled oleic acid. On the procedure: The ability of representative compounds of the present invention to inhibit ACAT was measured using an in vitro test more fully described in Field, F. J. and Salone, R. G., Biochemica et Biophysica, 712:557-570 (1982). The test assesses the ability of a test compound to inhibit the acylation of cholesterol by oleic acid by measuring the amount of radiolabeled cholesterol […] formed from radiolabeled oleic acid in a tissue preparation containing rabbit intestinal microsomes. The data appear in Table 1 where they are expressed in IC50 values; i.e., the concentration of test compound required to inhibit 50% expression of the enzyme.

Experiment [2] in a line: In vivo screen designated APCC, cholesterol in rats fed PCC diet with cholic acid. Also noted: species or system male Sprague-Dawley rats. To be noted: blood cholesterol; PCC diet with 1% or 0.5% cholic acid; dosed at 4 PM, sacrificed at 8 AM; dose not stated. An excerpt: In one in vivo screen designated APCC, male Sprague-Dawley rats (200 to 225 g) were randomly divided into treatment groups and dosed at 4 PM with either vehicle (CMC/Tween) or suspensions of compounds in vehicle. The normal, chow diet was then replaced with the PCC diet with either 1% or 0.5% cholic acid, as indicated. The rats consumed this diet ad libitum during the night and were sacrificed at 8 AM to obtain blood samples for cholesterol analysis using standard procedures. Statistical differences between mean cholesterol values for the same vehicle were determined using analysis of variance followed by Fisher's least significant test.

For the compound `CCCC(CCC)(CNC(=O)Nc1c(C(C)C)cccc1C(C)C)NC(=O)c1ccc(OC)cc1` [Example 4], the half-inhibitory concentration (IC50) (commonly the concentration that inhibits the measured activity by half) in experiment [1] stood at 0.096 µM.

Regarding `COc1ccc(C(=O)NC2(CNC(=O)Nc3c(C(C)C)cccc3C(C)C)CCCC2)cc1` [Example 5, N-[1-[[[[[2,6-bis(1-methylethyl)phenyl]amino]carbonyl]amino]methyl]cyclopentyl]-4-methoxybenzamide], the IC50 in experiment [1] was determined as 0.51 µM. Turning to `COc1ccc(CN[C@H](CNC(=O)Nc2c(C(C)C)cccc2C(C)C)CC(C)C)cc1` [Example 6, (S)-(-)-N-[2,6-bis(1-methylethyl)phenyl]-N'-[2-[[(4-methoxyphenyl)methyl]amino]-4-methyl-pentyl]urea], the IC50 in experiment [1] was 0.057 µM. Also, the “% Change” value in experiment [2] is on record as -25%. Turning to `COc1ccc(CN[C@@H](CCSC)CNC(=O)Nc2c(C(C)C)cccc2C(C)C)cc1` [Example 7, (S)-(-)-N-[2,6-Bis(1-methylethyl)phenyl]-N'-[2-[[(4-methoxyphenyl)methyl]amino]-4-(methylthio)butyl]urea], in experiment [2], the “% Change” value is -31%. In experiment [1], `COc1ccc(CN[C@H](CNC(=O)Nc2c(C(C)C)cccc2C(C)C)C(C)C)cc1` [Example 8, (S)-(-)-N[2,6-Bis(1-methylethyl)phenyl]-N'-[2-[[(4-methoxyphenyl]methyl]amino]-3-methylbutyl]urea] showed an IC50 of 0.085 µM. In addition, in experiment [2], the “% Change” value was -17%. For the compound `COc1ccc(CN[C@H](CNC(=O)Nc2c(C(C)C)cccc2C(C)C)Cc2ccccc2)cc1` [Example 9, (S)-(-)-N-[2,6-Bis(1-methylethyl)phenyl]-N'-[2-[[(4-methoxyphenyl)methyl]amino]-3-phenylpropyl]urea], the “% Change” value in experiment [2] was -33%. The same measure, in the same setting: next, `CC(C)c1cccc(C(C)C)c1NC(=O)NC[C@H](Cc1ccccc1)NCc1ccccc1O` [Example 10]: -46%.
